Reference: US20230174530A1, “N-(PHENYLAMINOCARBONYL) TETRAHYDRO-ISOQUINOLINES AND RELATED COMPOUNDS AS MODULATORS OF GPR65” (PATHIOS THERAPEUTICS LIMITED, priority 2020, published 2023)

target: T1, human recombinant GPR65 (Homo sapiens, UniProt Q8IYL9); assay: Human GPR65 cAMP HTRF antagonist assay; type: cell-based; conditions: 1321N1-hrGPR65 cells stimulated at assay pH 7.2; suppression of cAMP rise; read-out: hGPR65 IC50
T1 construct: host or cells: 1321N1 human astrocytoma cells (1321N1-hrGPR65)
T1 sequence (Q8IYL9 whole entry): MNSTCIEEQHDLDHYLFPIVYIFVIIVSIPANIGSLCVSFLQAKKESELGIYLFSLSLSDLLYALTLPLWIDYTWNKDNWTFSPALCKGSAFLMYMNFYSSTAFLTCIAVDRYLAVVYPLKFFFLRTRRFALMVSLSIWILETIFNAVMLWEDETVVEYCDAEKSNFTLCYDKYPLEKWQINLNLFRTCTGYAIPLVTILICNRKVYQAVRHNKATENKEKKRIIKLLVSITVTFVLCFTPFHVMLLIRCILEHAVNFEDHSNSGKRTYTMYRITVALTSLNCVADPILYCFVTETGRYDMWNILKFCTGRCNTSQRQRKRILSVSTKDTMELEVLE
Summary of the method: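 1321N1 astrocytoma cells stably expressing human GPR65, 2,000 per well in KRH with 1 mM IBMX and 200 μM EDTA, preincubated 30 min with compound at RT. Acid stimulation at pH 7.2 for 30 min, pH 7.9 as control. cAMP read by HTRF 665/620 ratio; IC50 from normalised 4-parameter fit.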

IC50 [µM] | Structure (SMILES)
> 5 | Cc1cccc2c1CN(C(=O)Nc1ccc(Cl)c(C(F)(F)F)c1)CC2 [Compound 28, N-(4-Chloro-3-(trifluoromethyl)phenyl)-8-methyl-3,4-dihydroisoquinoline-2(1H)-carboxamide]
> 5 | Cc1ccc2c(c1)CN(C(=O)Nc1ccc(Cl)c(Cl)c1)CC2 [Compound 34, N-(3,4-Dichlorophenyl)-7-methyl-3,4-dihydroisoquinoline-2(1H)-carboxamide]
> 5 | O=C(Nc1ccc(Cl)c(Cl)c1)N1CCc2cc(O)ccc2C1 [Compound 95, N-(3,4-Dichlorophenyl)-6-hydroxy-3,4-dihydroisoquinoline-2(1H)-carboxamide]
0.5 to 5 | Cc1ccc2c(c1)CCN(C(=O)Nc1ccc(C(F)(F)F)c(Cl)c1)C2 [Compound 136, N-(3-Chloro-4-(trifluoromethyl)phenyl)-6-methyl-3,4-dihydroisoquinoline-2(1H)-carboxamide]
0.5 to 5 | O=C(Nc1ccc(Cl)c(C(F)(F)F)c1)N1CCc2ccc(F)cc2C1 [Compound 32, N-(4-Chloro-3-(trifluoromethyl)phenyl)-7-fluoro-3,4-dihydroisoquinoline-2(1H)-carboxamide]
0.5 to 5 | O=C(Nc1ccc(C(F)(F)F)c(Cl)c1)N1CCc2ncncc2C1 [Compound 6, N-(3-Chloro-4-(trifluoromethyl)phenyl)-7,8-dihydropyrido[4,3-d]pyrimidine-6(5H)-carboxamide]
0.5 to 5 | Cc1cccc2c1CCN(C(=O)Nc1ccc(Cl)c(C(F)(F)F)c1)C2 [Compound 59, N-(4-Chloro-3-(trifluoromethyl)phenyl)-5-methyl-3,4-dihydroisoquinoline-2(1H)-carboxamide]
> 5 | O=C(Nc1ccc(C(F)(F)F)c(Cl)c1)N1CCc2ccnc(Cl)c2C1 [Compound 97, 8-Chloro-N-(3-chloro-4-(trifluoromethyl)phenyl)-3,4-dihydro-2,7-naphthyridine-2(1H)-carboxamide]
0.5 to 5 | COc1ccc2c(c1)CCN(C(=O)Nc1ccc(C(F)(F)F)c(Cl)c1)C2 [Compound 67, N-(3-Chloro-4-(trifluoromethyl)phenyl)-6-methoxy-3,4-dihydroisoquinoline-2(1H)-carboxamide]
0.5 to 5 | O=C(Nc1ccc(Cl)c(Cl)c1)N1CCc2[nH]c(=O)ncc2C1 [Compound 88, N-(3,4-Dichlorophenyl)-2-oxo-1,5,7,8-tetrahydropyrido[4,3-d]pyrimidine-6(2H)-carboxamide]
0.5 to 5 | O=C(Nc1ccc(Cl)c(Cl)c1)N1CCc2cnc(F)cc2C1 [Compound 86, N-(3,4-Dichlorophenyl)-7-fluoro-3,4-dihydro-2,6-naphthyridine-2(1H)-carboxamide]
0.5 to 5 | Cc1ccc2c(c1)CCN(C(=O)Nc1ccc(Cl)c(Cl)c1)C2 [Compound 135, N-(3,4-Dichlorophenyl)-6-methyl-3,4-dihydroisoquinoline-2(1H)-carboxamide]
< 0.5 | O=C(Nc1ccc(C(F)(F)F)c(Cl)c1)N1CCc2cnccc2C1 [Compound 14, N-(3-Chloro-4-(trifluoromethyl)phenyl)-3,4-dihydro-2,6-naphthyridine-2(1H)-carboxamide]
0.5 to 5 | N#Cc1cc2c(cn1)CN(C(=O)Nc1ccc(Cl)c(Cl)c1)CC2 [Compound 102, 6-Cyano-N-(3,4-dichlorophenyl)-3,4-dihydro-2,7-naphthyridine-2(1H)-carboxamide]
0.5 to 5 | N#Cc1cccc2c1CN(C(=O)Nc1ccc(C(F)(F)F)c(Cl)c1)CC2 [Compound 132, N-(3-Chloro-4-(trifluoromethyl)phenyl)-8-cyano-3,4-dihydroisoquinoline-2(1H)-carboxamide]
< 0.5 | N#Cc1ccc2c(c1)CCN(C(=O)Nc1ccc(Cl)c(Cl)c1)C2 [Compound 37, 6-Cyano-N-(3,4-dichlorophenyl)-3,4-dihydroisoquinoline-2(1H)-carboxamide]
> 5 | O=C(Nc1ccc(Cl)c(Cl)c1)N1CCc2cn3cnnc3cc2C1 [Compound 116, N-(3,4-Dichlorophenyl)-6,7-dihydro-[1,2,4]triazolo[4,3-b][2,6]naphthyridine-8(9H)-carboxamide]
< 0.5 | O=C(Nc1ccc(C(F)(F)F)c(Cl)c1)N1CCc2c(F)cccc2C1 [Compound 36, N-(3-Chloro-4-(trifluoromethyl)phenyl)-5-fluoro-3,4-dihydroisoquinoline-2(1H)-carboxamide]
> 5 | O=C(Nc1ccc(C(F)(F)F)c(Cl)c1)N1CCc2cc(C(F)(F)F)ccc2C1 [Compound 72, N-(3-Chloro-4-(trifluoromethyl)phenyl)-6-(trifluoromethyl)-3,4-dihydroisoquinoline-2(1H)-carboxamide]
< 0.5 | O=C(Nc1ccc(C(F)(F)F)c(Cl)c1)N1CCc2ccc(F)cc2C1 [Compound 33, N-(3-Chloro-4-(trifluoromethyl)phenyl)-7-fluoro-3,4-dihydroisoquinoline-2(1H)-carboxamide]
> 5 | O=C(Nc1ccc(Cl)c(Cl)c1)N1CCc2cc3nccn3cc2C1 [Compound 110, N-(3,4-Dichlorophenyl)-8,9-dihydroimidazo[1,2-b][2,7]naphthyridine-7(6H)-carboxamide]
< 0.5 | O=C(Nc1ccc(C(F)(F)F)c(Cl)c1)N1CCc2cc(F)c(F)cc2C1 [Compound 108, N-(3-Chloro-4-(trifluoromethyl)phenyl)-6,7-difluoro-3,4-dihydroisoquinoline-2(1H)-carboxamide]
